From PubChem BioAssay (NCI)
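Method: 48-hour compound exposure of cells in 96-well plates, five concentrations, linear interpolation of endpoints. Here, GI50 denotes the concentration required for 50% inhibition of growth. TGI: total growth inhibition.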

What was measured:
Experiment in all cases: inhibition of tumour cell growth, NCI panel, 48 h
[1] = system: RPMI-8226 leukemia
[2] = system: SN12C renal
[3] = system: NCI-H460 lung
[4] = system: EKVX NSCLC
[5] = system: IGROV1 ovarian
[6] = system: NCI-H23 lung
[7] = system: CCRF-CEM leukemia
[8] = system: ACHN renal
[9] = system: DU-145 prostate
[10] = system: SF-268 CNS
[11] = system: OVCAR-4 ovarian
[12] = system: OVCAR-5 ovarian
[13] = system: SK-MEL-28 melanoma
[14] = system: UACC-62 melanoma
[15] = system: SK-MEL-5 melanoma
[16] = system: A498 renal
[17] = system: RXF 393 renal
[18] = system: MOLT-4 leukemia
[19] = system: LOX IMVI melanoma
[20] = system: SF-539 CNS
[21] = system: HT29 colon
[22] = system: SR leukemia
[23] = system: HOP-62 NSCLC
[24] = system: HL-60(TB) leukemia
[25] = system: A549 NSCLC
[26] = system: OVCAR-3 ovarian
[27] = system: U251 CNS
[28] = system: PC-3 prostate
[29] = system: OVCAR-8 ovarian
[30] = system: SW-620 colon
[31] = system: NCI-H226 lung
[32] = system: SK-MEL-2 melanoma
[33] = system: NCI-H522 lung
[34] = system: HS 578T breast
[35] = system: HCT-15 colon
[36] = system: UO-31 renal
[37] = system: MDA-MB-231 breast
[38] = system: HCC-2998 colon
[39] = system: CAKI-1 renal
[40] = system: UACC-257 melanoma
[41] = system: SNB-75 CNS
[42] = system: BT-549 breast
[43] = system: HOP-92 NSCLC
[44] = system: T-47D breast
[45] = system: MALME-3M melanoma
[46] = system: COLO 205 colon
[47] = system: M14 melanoma
[48] = system: HCT-116 colon
[49] = system: MCF7 breast
[50] = system: 786-0 renal
[51] = system: K-562 leukemia
[52] = system: NCI/ADR-RES ovarian
[53] = system: TK-10 renal
[54] = system: SK-OV-3 ovarian
[55] = system: KM12 colon
[56] = system: SNB-19 CNS
[57] = system: SF-295 CNS
[58] = system: MDA-MB-435

Q: For `Cc1nn2c(/C=C3\C(=O)Nc4ccc(Cl)cc43)c(C)nc2s1`, which GI50 [1] is on record?
A: 33.2 µM

Q: What about the TGI [1] of the same molecule?
A: > 100 µM

Q: And the GI50 [2]?
A: > 100 µM

Q: And the TGI [2]?
A: > 100 µM

Q: What about the GI50 [3] of the same molecule?
A: 16.3 µM

Q: And the TGI [3]?
A: > 100 µM

Q: And the GI50 [4]?
A: 92 µM

Q: And the TGI [4]?
A: > 100 µM

Q: What about the GI50 [5] of the same molecule?
A: 23.7 µM

Q: And the TGI [5]?
A: > 100 µM

Q: And the GI50 [6]?
A: 77.1 µM

Q: What about the TGI [6] of the same molecule?
A: > 100 µM

Q: And the GI50 [7]?
A: 21.1 µM

Q: And the TGI [7]?
A: > 100 µM

Q: And the GI50 [8]?
A: 72.9 µM

Q: And the TGI [8]?
A: > 100 µM

Q: What about the GI50 [9] of the same molecule?
A: 86.5 µM

Q: What about the TGI [9] of the same molecule?
A: > 100 µM

Q: What about the GI50 [10] of the same molecule?
A: 43.2 µM

Q: And the TGI [10]?
A: > 100 µM

Q: What about the GI50 [11] of the same molecule?
A: 83 µM

Q: What about the TGI [11] of the same molecule?
A: > 100 µM

Q: And the GI50 [12]?
A: > 100 µM

Q: What about the TGI [12] of the same molecule?
A: > 100 µM

Q: What about the GI50 [13] of the same molecule?
A: 27.5 µM

Q: And the TGI [13]?
A: > 100 µM

Q: And the GI50 [14]?
A: 82.1 µM

Q: What about the TGI [14] of the same molecule?
A: > 100 µM

Q: And the GI50 [15]?
A: 10.1 µM

Q: And the TGI [15]?
A: > 100 µM

Q: And the GI50 [16]?
A: 46 µM

Q: And the TGI [16]?
A: > 100 µM

Q: And the GI50 [17]?
A: > 100 µM

Q: What about the TGI [17] of the same molecule?
A: > 100 µM

Q: What about the GI50 [18] of the same molecule?
A: 35.6 µM

Q: And the TGI [18]?
A: > 100 µM

Q: What about the GI50 [19] of the same molecule?
A: 83.1 µM

Q: What about the TGI [19] of the same molecule?
A: > 100 µM

Q: And the GI50 [20]?
A: 45 µM

Q: What about the TGI [20] of the same molecule?
A: > 100 µM

Q: What about the GI50 [21] of the same molecule?
A: 5.16 µM

Q: And the TGI [21]?
A: > 100 µM

Q: And the GI50 [22]?
A: 4.69 µM

Q: And the TGI [22]?
A: 64.4 µM

Q: And the GI50 [23]?
A: 61.1 µM

Q: What about the TGI [23] of the same molecule?
A: > 100 µM

Q: And the GI50 [24]?
A: 13.5 µM

Q: And the TGI [24]?
A: 43.4 µM

Q: What about the GI50 [25] of the same molecule?
A: 93.9 µM

Q: What about the TGI [25] of the same molecule?
A: > 100 µM

Q: And the GI50 [26]?
A: 23.3 µM

Q: What about the TGI [26] of the same molecule?
A: > 100 µM

Q: And the GI50 [27]?
A: 46.5 µM

Q: And the TGI [27]?
A: > 100 µM

Q: And the GI50 [28]?
A: 21.3 µM

Q: What about the TGI [28] of the same molecule?
A: > 100 µM

Q: What about the GI50 [29] of the same molecule?
A: 84.3 µM

Q: What about the TGI [29] of the same molecule?
A: > 100 µM

Q: What about the GI50 [30] of the same molecule?
A: 23.4 µM

Q: And the TGI [30]?
A: > 100 µM

Q: And the GI50 [31]?
A: > 100 µM

Q: What about the TGI [31] of the same molecule?
A: > 100 µM

Q: What about the GI50 [32] of the same molecule?
A: 22.2 µM

Q: And the TGI [32]?
A: 82.4 µM

Q: What about the GI50 [33] of the same molecule?
A: 6 µM

Q: What about the TGI [33] of the same molecule?
A: 39 µM

Q: What about the GI50 [34] of the same molecule?
A: 61.8 µM

Q: And the TGI [34]?
A: > 100 µM

Q: What about the GI50 [35] of the same molecule?
A: 13.9 µM

Q: And the TGI [35]?
A: > 100 µM

Q: And the GI50 [36]?
A: 34.6 µM

Q: What about the TGI [36] of the same molecule?
A: > 100 µM

Q: And the GI50 [37]?
A: > 100 µM

Q: And the TGI [37]?
A: > 100 µM

Q: And the GI50 [38]?
A: 26.2 µM

Q: What about the TGI [38] of the same molecule?
A: > 100 µM

Q: What about the GI50 [39] of the same molecule?
A: 26 µM

Q: And the TGI [39]?
A: > 100 µM

Q: What about the GI50 [40] of the same molecule?
A: > 100 µM

Q: What about the TGI [40] of the same molecule?
A: > 100 µM

Q: And the GI50 [41]?
A: 16 µM

Q: And the TGI [41]?
A: 92.2 µM

Q: And the GI50 [42]?
A: 63.2 µM

Q: And the TGI [42]?
A: > 100 µM

Q: And the GI50 [43]?
A: > 100 µM

Q: And the TGI [43]?
A: > 100 µM

Q: What about the GI50 [44] of the same molecule?
A: 42.8 µM

Q: And the TGI [44]?
A: > 100 µM

Q: And the GI50 [45]?
A: > 100 µM

Q: And the TGI [45]?
A: > 100 µM

Q: What about the GI50 [46] of the same molecule?
A: 13.3 µM

Q: What about the TGI [46] of the same molecule?
A: > 100 µM

Q: What about the GI50 [47] of the same molecule?
A: 23.2 µM

Q: What about the TGI [47] of the same molecule?
A: > 100 µM

Q: And the GI50 [48]?
A: 30.2 µM

Q: And the TGI [48]?
A: > 100 µM

Q: And the GI50 [49]?
A: 15.6 µM

Q: What about the TGI [49] of the same molecule?
A: > 100 µM

Q: And the GI50 [50]?
A: 33.7 µM

Q: What about the TGI [50] of the same molecule?
A: > 100 µM

Q: What about the GI50 [51] of the same molecule?
A: 5.43 µM

Q: And the TGI [51]?
A: > 100 µM

Q: And the GI50 [52]?
A: 15.8 µM

Q: And the TGI [52]?
A: > 100 µM

Q: What about the GI50 [53] of the same molecule?
A: > 100 µM

Q: What about the TGI [53] of the same molecule?
A: > 100 µM

Q: What about the GI50 [54] of the same molecule?
A: 49.8 µM

Q: And the TGI [54]?
A: > 100 µM

Q: What about the GI50 [55] of the same molecule?
A: 6.84 µM

Q: What about the TGI [55] of the same molecule?
A: > 100 µM

Q: And the GI50 [56]?
A: 26.9 µM

Q: And the TGI [56]?
A: > 100 µM

Q: And the GI50 [57]?
A: 16.7 µM

Q: And the TGI [57]?
A: > 100 µM

Q: What about the GI50 [58] of the same molecule?
A: 3.4 µM

Q: And the TGI [58]?
A: 26.7 µM
